The subject of this assay is BW5 T-cells. The assay can be described thus: Activation of TetCAR-expressing BW5 T-cells challenged with SupT1 cells expressing CD33, with increasing tetracycline. It is filed as cell-based. To be noted: TetCAR (anti-CD33) BW5 T-cells challenged with SupT1 cells expressing CD33. The text has this:
A bicistronic construct was expressed in BW5 T cells as a single transcript which self-cleaves at the 2A site to yield a signalling component which comprises TiP fused via a flexible linker to the endodomain of CD3-Zeta; and a receptor component which comprises a CD33 recognizing scFv, a spacer derived from the Fc domain of IgG1, a CD4 derived transmembrane and intracellular domain; and TetR (FIG. 6a). A control was also expressed which was identical except that TiP was absent from the signalling component (FIG. 6b).
The BW5 T-cells were challenged with wild-type SupT1 cells or SupT1 cells engineered to express CD33 in the absence of tetracycline or in the presence of increasing concentrations of tetracycline.
Control TetCAR which lacks the TiP domain was also transduced into BW5. Once again, these T-cells were challenged with wild-type SupT1 cells or SupT1 cells engineered to express CD33 in the absence or in the presence of increasing concentration of Tetracycline.

Regarding `CN(C)[C@@H]1C(O)=C(C(N)=O)C(=O)[C@@]2(O)C(O)=C3C(=O)c4c(O)cccc4[C@@](C)(O)[C@H]3C[C@@H]12` [tetracycline, reference compound], the “concentration of tetracycline at which activation is fully inhibited” value worked out at 100 nM.

(Values after patent publication US11466070B2, “Signalling system” (AUTOLUS LIMITED, priority 2016, dated 2022).)
